Common to all, as to type: cell-based
Common to all, as to details: fluorescent calcium assay

The target of one experiment is TRPML1 (Homo sapiens, UniProt Q9GZU1). Briefly: Fluorescent TRPML1 assay (Fluo4-AM calcium fluorescence in doxycycline-induced HEK-293 Trex cells). The gist of the method:
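First, expression of surface-targeted mutant human TRPML1 is induced in HEK-293 Trex cells with 0.5 ug/mL doxycycline the day before. Next, cells take up 1 micromolar Fluo4-AM in Ringer's with 0.1% Pluronic. Finally, they are added to compounds (6 nanomolar–20 micromolar final) in 10 mM calcium Ringer's and fluorescence is read.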

The next experiment has as its target T1, TRPML2 (Homo sapiens, UniProt Q8IZK6).
T1 construct: expressed in transfected cells
T1 sequence (Q8IZK6 1-566): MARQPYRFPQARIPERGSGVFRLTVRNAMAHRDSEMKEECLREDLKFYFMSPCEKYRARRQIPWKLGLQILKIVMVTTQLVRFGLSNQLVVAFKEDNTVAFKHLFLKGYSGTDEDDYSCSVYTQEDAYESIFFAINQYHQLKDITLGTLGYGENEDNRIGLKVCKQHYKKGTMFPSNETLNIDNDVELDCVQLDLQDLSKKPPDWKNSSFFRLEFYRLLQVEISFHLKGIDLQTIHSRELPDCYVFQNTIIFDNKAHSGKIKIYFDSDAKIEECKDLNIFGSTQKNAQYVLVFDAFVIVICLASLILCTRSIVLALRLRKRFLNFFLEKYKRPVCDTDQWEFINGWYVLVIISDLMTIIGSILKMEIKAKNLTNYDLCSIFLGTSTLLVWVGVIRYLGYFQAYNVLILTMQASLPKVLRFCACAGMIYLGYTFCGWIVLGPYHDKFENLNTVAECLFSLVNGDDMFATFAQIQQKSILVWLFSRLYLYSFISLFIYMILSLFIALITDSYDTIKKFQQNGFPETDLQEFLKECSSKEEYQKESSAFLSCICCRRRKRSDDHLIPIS
The experiment is described as follows: Fluorescent TRPML2 assay (performed as for TRPML1, substituting the TRPML2 subtype). An outline of the steps: (§1)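 Agonist activity is scored as percent of plate controls from Fluo4 fluorescence after dye-loaded, doxycycline-induced HEK-293 Trex cells meet compound in high-calcium (10 mM) Ringer's. Compounds run in half-log dilutions from 20 micromolar final, in triplicate.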

A further experiment has as its target T2, TRPML3 (Homo sapiens, UniProt Q8TDD5).
T2 construct: expressed in transfected cells
T2 sequence (Q8TDD5 1-553): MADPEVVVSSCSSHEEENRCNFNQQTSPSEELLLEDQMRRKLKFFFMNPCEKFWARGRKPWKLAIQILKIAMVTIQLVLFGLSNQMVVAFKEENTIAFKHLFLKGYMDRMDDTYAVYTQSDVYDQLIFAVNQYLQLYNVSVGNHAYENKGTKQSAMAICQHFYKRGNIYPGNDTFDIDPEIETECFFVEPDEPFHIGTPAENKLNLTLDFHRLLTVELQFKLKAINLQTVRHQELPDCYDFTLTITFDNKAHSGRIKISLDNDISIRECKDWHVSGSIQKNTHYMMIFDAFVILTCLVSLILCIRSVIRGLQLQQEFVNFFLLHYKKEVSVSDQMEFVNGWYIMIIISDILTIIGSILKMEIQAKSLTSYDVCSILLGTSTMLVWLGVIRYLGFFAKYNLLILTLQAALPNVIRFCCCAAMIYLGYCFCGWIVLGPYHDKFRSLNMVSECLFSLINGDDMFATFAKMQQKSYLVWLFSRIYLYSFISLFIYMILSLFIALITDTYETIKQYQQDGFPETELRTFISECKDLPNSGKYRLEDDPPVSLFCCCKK
Briefly: Fluorescent TRPML3 assay (performed as for TRPML1, substituting the TRPML3 subtype). An outline of the steps: as §1

Sequence of TRPML1 (Q9GZU1 whole entry L15A/L16A/L577A/L578A, form open): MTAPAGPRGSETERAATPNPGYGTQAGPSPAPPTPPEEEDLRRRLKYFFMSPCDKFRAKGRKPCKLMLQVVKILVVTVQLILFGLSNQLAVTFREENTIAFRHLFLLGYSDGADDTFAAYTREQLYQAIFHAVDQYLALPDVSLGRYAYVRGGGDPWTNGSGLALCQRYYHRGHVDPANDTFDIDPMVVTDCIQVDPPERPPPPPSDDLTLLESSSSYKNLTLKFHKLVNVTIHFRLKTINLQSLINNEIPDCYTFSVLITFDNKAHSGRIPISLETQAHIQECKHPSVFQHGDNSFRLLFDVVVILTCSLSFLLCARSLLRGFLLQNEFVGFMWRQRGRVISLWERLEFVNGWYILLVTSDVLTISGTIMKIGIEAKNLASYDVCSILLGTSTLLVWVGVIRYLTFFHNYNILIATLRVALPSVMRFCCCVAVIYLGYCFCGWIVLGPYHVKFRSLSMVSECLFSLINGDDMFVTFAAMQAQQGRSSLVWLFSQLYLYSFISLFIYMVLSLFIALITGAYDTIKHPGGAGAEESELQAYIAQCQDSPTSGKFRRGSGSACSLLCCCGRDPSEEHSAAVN

For `C[C@H]1CN(C(=O)OC(C)(C)C)CCN1c1ncnc2c1c(C1CCC1)cn2-c1cc(C#N)ccn1` [Compound 333], the EC50 on TRPML1, at TRPML2 and on TRPML3 was less than 100 nM in each case.

As for `C[C@H]1CN(C(=O)OC(C)(C)C)CCN1c1ncnc2c1c(N1CCCC1)cn2C1CCCCC1` [Compound 334, tert-butyl (S)-4-(7-cyclohexyl-5-(pyrrolidin-1-yl)-7H-pyrrolo[2,3-d]pyrimidin-4-yl)-3-methylpiperazine-1-carboxylate], the EC50 on TRPML1 is less than 100 nM; at TRPML2, 100 to 500 nM; on TRPML3 it was less than 100 nM.

`C[C@H]1CN(C(=O)OC(C)(C)C(F)(F)F)CCN1c1ncnc2c1c(-c1cncnc1)cn2-c1cc(C#N)ccn1` [Compound 335]: the EC50 at TRPML1 is less than 100 nM; on TRPML2 it was 500 to 2000 nM; at TRPML3, less than 100 nM.

As for `C[C@H]1CN(C(=O)OC(C)(C)C(F)(F)F)CCN1c1ncnc2c1c(-c1cncnc1)cn2-c1cccc(C#N)c1` [Compound 336, 1,1,1-trifluoro-2-methylpropan-2-yl (S)-4-(7-(3-cyanophenyl)-5-(pyrimidin-5-yl)-7H-pyrrolo[2,3-d]pyrimidin-4-yl)-3-methylpiperazine-1-carboxylate], the EC50 on TRPML1 was 100 to 500 nM; on TRPML2 it was greater than 2000 nM; on TRPML3, less than 100 nM.

As for `C[C@H]1CN(C(=O)OC(C)(C)C)CCN1c1ncnc2c1c(CN1CCCC1)cn2-c1cccc(Cl)c1` [Compound 337, tert-butyl-(S)-4-(7-(3-chlorophenyl)-5-(pyrrolidin-1-ylmethyl)-7H-pyrrolo[2,3-d]pyrimidin-4-yl)-3-methylpiperazine-1-carboxylate], the EC50 at TRPML1 is 500 to 2000 nM; on TRPML2, greater than 2000 nM; on TRPML3, 100 to 500 nM.

On to `C[C@H]1CN(C(=O)OC(C)(C)C)CCN1c1ncnc2c1c(N1CCCC1)cn2C1CCCC1` [Compound 338, tert-butyl (S)-4-(7-cyclopentyl-5-(pyrrolidin-1-yl)-7H-pyrrolo[2,3-d]pyrimidin-4-yl)-3-methylpiperazine-1-carboxylate], for which the EC50 is 100 to 500 nM on TRPML1, greater than 2000 nM on TRPML2 and 500 to 2000 nM on TRPML3.

In the case of `C[C@H]1CN(C(=O)OC(C)(C)C)CCN1c1ncnc2c1c(C1CC1)cn2C1CCCC1` [Compound 339, tert-butyl (S)-4-(7-cyclopentyl-5-cyclopropyl-7H-pyrrolo[2,3-d]pyrimidin-4-yl)-3-methylpiperazine-1-carboxylate], the EC50 was 100 to 500 nM on TRPML1, greater than 2000 nM at TRPML2 and 100 to 500 nM on TRPML3.

Regarding `C[C@H]1CN(C(=O)OC(C)(C)C)CCN1c1ncnc2c1c(C1CC1)cn2C1CCOCC1` [Compound 340, tert-butyl (S)-4-(5-cyclopropyl-7-(tetrahydro-2H-pyran-4-yl)-7H-pyrrolo[2,3-d]pyrimidin-4-yl)-3-methylpiperazine-1-carboxylate], the EC50 was 500 to 2000 nM at TRPML1, greater than 2000 nM on TRPML2 and 100 to 500 nM on TRPML3.

Take `C[C@@H]1CN(c2ncnc3c2c(N2CCC2)cn3-c2cccc(C#N)c2)CCN1C(=O)OC(C)(C)C` [Compound 341, tert-butyl (R)-4-(5-(azetidin-1-yl)-7-(3-cyanophenyl)-7H-pyrrolo[2,3-d]pyrimidin-4-yl)-2-methylpiperazine-1-carboxylate]: the EC50 on TRPML1, at TRPML2 and at TRPML3 was less than 100 nM each time.

As for `C[C@@H]1CN(c2ncnc3c2c(-n2ccnc2)cn3-c2cccc(Cl)c2)CCN1C(=O)OC(C)(C)C` [Compound 342, tert-butyl (R)-4-(7-(3-chlorophenyl)-5-(1H-imidazol-1-yl)-7H-pyrrolo[2,3-d]pyrimidin-4-yl)-2-methylpiperazine-1-carboxylate], the EC50 was less than 100 nM on TRPML1, 500 to 2000 nM at TRPML2 and 100 to 500 nM on TRPML3.

For `C[C@H]1CN(C(=O)OC(C)(C)C)CCN1c1ncnc2c1c(C1CC1)nn2-c1cc(C#N)ccn1` [Compound 343], the EC50 at TRPML1 was 500 to 2000 nM; on TRPML2 it was greater than 2000 nM; at TRPML3, 100 to 500 nM.

In the case of `C[C@H]1CN(C(=O)OC(C)(C)C)CCN1c1ncnc2c1c(N1CCOCC1)cn2C1CCCCC1` [Compound 344, tert-butyl (S)-4-(7-cyclohexyl-5-morpholino-7H-pyrrolo[2,3-d]pyrimidin-4-yl)-3-methylpiperazine-1-carboxylate], the EC50 on TRPML1 is 100 to 500 nM; at TRPML2 it was greater than 2000 nM; at TRPML3 it was 100 to 500 nM.

Regarding `C[C@H]1CN(C(=O)OC(C)(C)C)CCN1c1ncnc2c1c(C1CC1)cn2C1CCCOC1` (stereo partly drawn) [Compound 345, tert-butyl (3S)-4-(5-cyclopropyl-7-(tetrahydro-2H-pyran-3-yl)-7H-pyrrolo[2,3-d]pyrimidin-4-yl)-3-methylpiperazine-1-carboxylate], the EC50 on TRPML1 is 500 to 2000 nM; on TRPML2, greater than 2000 nM; on TRPML3, 500 to 2000 nM.

For `CCOC(=O)N1CCN(c2ncnc3c2c(-c2ccccc2F)cn3-c2cc(C#N)ccn2)[C@@H](C)C1` [Compound 346, ethyl (S)-4-(7-(4-cyanopyridin-2-yl)-5-(2-fluorophenyl)-7H-pyrrolo[2,3-d]pyrimidin-4-yl)-3-methylpiperazine-1-carboxylate], the EC50 on TRPML1, on TRPML2 and at TRPML3 was less than 100 nM in each case.

As for `CC(C)OC(=O)N1CCN(c2ncnc3c2c(-c2ccccc2F)cn3-c2cc(C#N)ccn2)[C@@H](C)C1` [Compound 347, isopropyl (S)-4-(7-(4-cyanopyridin-2-yl)-5-(2-fluorophenyl)-7H-pyrrolo[2,3-d]pyrimidin-4-yl)-3-methylpiperazine-1-carboxylate], the EC50 at TRPML1, at TRPML2 and on TRPML3 was less than 100 nM throughout.

On to `CC(OC(=O)N1CCN(c2ncnc3c2c(-c2ccccc2F)cn3-c2cc(C#N)ccn2)[C@@H](C)C1)C(F)(F)F` (stereo partly drawn) [Compound 348, 1,1,1-trifluoropropan-2-yl (3S)-4-(7-(4-cyanopyridin-2-yl)-5-(2-fluorophenyl)-7H-pyrrolo[2,3-d]pyrimidin-4-yl)-3-methylpiperazine-1-carboxylate], for which the EC50 at TRPML1, on TRPML2 and at TRPML3 was less than 100 nM each time.

Regarding `C[C@H]1CN(C(=O)OCC(F)(F)F)CCN1c1ncnc2c1c(-c1ccccc1F)cn2-c1cc(C#N)ccn1` [Compound 349, 2,2,2-trifluoroethyl (S)-4-(7-(4-cyanopyridin-2-yl)-5-(2-fluorophenyl)-7H-pyrrolo[2,3-d]pyrimidin-4-yl)-3-methylpiperazine-1-carboxylate], the EC50 at TRPML1, at TRPML2 and at TRPML3 was less than 100 nM in each case.

`C[C@H]1CN(C(=O)OC(C)(C)C)CCN1c1ncnc2c1c(N1CCC1)cn2-c1cccc(C#N)c1` [Compound 350, tert-butyl (S)-4-(5-(azetidin-1-yl)-7-(3-cyanophenyl)-7H-pyrrolo[2,3-d]pyrimidin-4-yl)-3-methylpiperazine-1-carboxylate]: the EC50 on TRPML1, on TRPML2 and on TRPML3 was less than 100 nM throughout.

As for `C[C@H]1CN(C(=O)OC(C)(C)C)CCN1c1ncnc2c1c(-c1ccccn1)cn2-c1cc(C#N)ccn1` [Compound 352, tert-butyl (S)-4-(7-(4-cyanopyridin-2-yl)-5-(pyridin-2-yl)-7H-pyrrolo[2,3-d]pyrimidin-4-yl)-3-methylpiperazine-1-carboxylate], the EC50 at TRPML1, at TRPML2 and on TRPML3 was less than 100 nM each time.

As to `C[C@H]1CN(C(=O)OC(C)(C)C)CCN1c1ncnc2c1c(-c1cccnc1)cn2-c1cc(C#N)ccn1` [Compound 353, tert-butyl (S)-4-(7-(4-cyanopyridin-2-yl)-5-(pyridin-3-yl)-7H-pyrrolo[2,3-d]pyrimidin-4-yl)-3-methylpiperazine-1-carboxylate], the concentration giving a half-maximal response (EC50) on TRPML1, on TRPML2 and on TRPML3 was less than 100 nM in each case.

By EC50 is commonly meant the midpoint of the concentration-response curve.

Values taken from patent publication US20250136606A1, “MODULATORS OF TRPML, THEIR COMPOSITIONS AND METHODS OF USE” (Caraway Therapeutics, Inc., priority 2021, published 2025).
